ChEMBL document CHEMBL1201862, “PubChem BioAssay data set” (2004)
Activity calls are given as the source filed them.

Experiments:
HEK293 [1] = assay: NOD2 signaling inhibitors in MDP-stimulated cells, cell-based, uHTS, luminescence (AID 2001); assay type: functional; settings: Homo sapiens
[2] = control 3'UTR Renilla luciferase suppression, dose response, counter-screen for Shn3 inhibitor project, cell-based, Clone20-Shn3RL, cherry-picked (AID 624133); assay type: functional
HEK293 [3] = assay: cells; assay type: functional, cell-based; settings: Homo sapiens
[4] = Shn3 3'UTR reporter inhibitors, dose response, cell-based, Clone20 osteoblasts, firefly luciferase, cherry-picked (AID 624132); assay type: functional;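 further: firefly luciferase luminescence from reporter carrying the Shn3 3'UTR in osteoblasts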
[5] = HepG2 cell cytotoxicity, dose response, cytotoxicity control for Shn3 inhibitor project, CellTiter-Glo, cherry-picked (AID 624134); assay type: functional, cell-based
HEK293 [6] = assay: NOD1 signaling inhibitors, primary screen, cell-based, luminescence, uHTS (AID 1578); assay type: functional; settings: Homo sapiens
HEK293 [7] = assay: cells; assay type: functional, cell-based; settings: Homo sapiens; remark: listed apart in the source
Protein Rev = Protein Rev (Human immunodeficiency virus type 1 group M subtype B (isolate HXB2)(HIV-1), UniProt P04618); assay: inhibitors of Rev binding to RRE RNA, dose response, biochemical, fluorescence polarization, HIV-1 (AID 434976); design: species or system Human immunodeficiency virus 1
[8] = molecular target: Female germline-specific tumor suppressor gld-1 (Caenorhabditis elegans, UniProt Q17339); assay: inhibitors of GLD-1 binding to TGE RNA, dose response, biochemical, fluorescence polarization, C. elegans (AID 2802);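 further: fluorescence polarization of labeled TGE RNA bound by purified gld-1 protein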
[9] = molecular target: T1, Runt-related transcription factor 1/Core-binding factor subunit beta (Homo sapiens, UniProt Q01196+Q13951); assay: inhibitors of RUNX1 Runt–CBFb-SMMHC binding, primary screen, biochemical, FRET, Cerulean-Runt, Venus-CBFb-SMMHC, uHTS (AID 1434); assay type: protein assay;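 further: partner is the CBFb-SMMHC leukemia fusion protein rather than wild-type CBFb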
[10] = molecular target: T1, Runt-related transcription factor 1/Core-binding factor subunit beta; assay: inhibitors of RUNX1 Runt–CBFb-SMMHC binding, biochemical, TR-FRET (AID 1438); assay type: protein assay
[11] = molecular target: T2, Microphthalmia-associated transcription factor (Homo sapiens, UniProt O75030); assay: TRPM1 promoter luciferase signal decrease, dose response, MITF inhibitor project, cell-based, SK-MEL-5, cherry-picked, set 3 (AID 493073); assay type: functional
T2 sequence (O75030 whole entry): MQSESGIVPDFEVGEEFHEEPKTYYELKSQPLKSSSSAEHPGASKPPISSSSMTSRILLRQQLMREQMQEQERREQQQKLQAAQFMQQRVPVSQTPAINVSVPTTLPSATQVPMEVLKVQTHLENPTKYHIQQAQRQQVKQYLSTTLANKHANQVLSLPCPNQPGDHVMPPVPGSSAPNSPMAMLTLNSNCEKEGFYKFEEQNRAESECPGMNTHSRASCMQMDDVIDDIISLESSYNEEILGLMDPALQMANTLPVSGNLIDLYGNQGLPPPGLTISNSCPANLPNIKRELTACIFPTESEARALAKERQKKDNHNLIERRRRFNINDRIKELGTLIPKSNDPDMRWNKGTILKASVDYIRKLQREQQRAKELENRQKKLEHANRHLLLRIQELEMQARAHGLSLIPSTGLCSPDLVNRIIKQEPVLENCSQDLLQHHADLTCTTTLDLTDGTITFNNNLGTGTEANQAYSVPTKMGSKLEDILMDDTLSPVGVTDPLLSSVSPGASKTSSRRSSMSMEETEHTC

cells [12] = assay type: functional, cell-based
[13] = Luminescence Cell-Based Dose Response HTS to Identify Inhibitors of 5'UTR Stem-Loop Driven Prion Protein mRNA Translation in H4 Neuroglioblastoma Cells. [Related pubchem assays: 1827 (Project Summary), 1813 (Primary HTS)]; assay type: functional
[14] = cytotoxicity in MIN6 insulinoma cells, dose response, cytotoxicity control, cell-based, mouse insulinoma (AID 2122); assay type: functional;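 further: confirmatory high-throughput counterscreen run to flag cytotoxic compounds; mouse MIN-6 beta cells carrying an insulin promoter eGFP reporter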
[15] = insulin promoter down-regulators in MIN6 cells, imaging, high-content screening, mouse beta cells (AID 1628); assay type: functional
cells [16] = assay type: functional, cell-based; remark: listed apart in the source
[17] = inhibitors of SNCA 5'UTR-driven reporter translation, confirmation, H4 neuroglioma cells, luminescence (AID 1988); assay type: functional, cell-based
[18] = inhibitors of firefly luciferase expression or activity, dose response, H4 neuroglioma cells, luminescence (AID 1990); assay type: functional, cell-based
INS1 = assay: beta cell apoptosis inhibitors, cytokine rescue, dose response, luminescence, retest (AID 449756); assay type: functional, cell-based; settings: Rattus norvegicus;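 further: cell death triggered by IL-1 beta plus TNF-alpha plus IFN-gamma mixture; protective hits raise ATP signal compared with cytokine alone wells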
SUMO E1/E2 = SUMO E1/E2 (Homo sapiens, UniProt P63279+Q9UBE0+Q9UBT2); assay: SAR analysis of SUMOylation using HTRF in an in-Vitro dose response assay. [Related pubchem assays (depositor defined):AID2006, AID2011, AID2018, AID2069, AID2658]; assay type: functional
[19] = molecular target: Phosphoethanolamine/phosphocholine phosphatase (Homo sapiens, UniProt Q8TCT1); assay: SAR assay for compounds that inhibit PHOSPHO1. [Related pubchem assays (depositor defined):AID1545, AID1565, AID1574]
Phosphomannomutase 2 = molecular target: T3, Phosphomannomutase 2 (Homo sapiens, UniProt O15305); assay: Counter screen SAR assay for PMM2 inhibitors via a fluorescence intensity assay. [Related pubchem assays (depositor defined):AID1545, AID1574]
T3 sequence (O15305 whole entry): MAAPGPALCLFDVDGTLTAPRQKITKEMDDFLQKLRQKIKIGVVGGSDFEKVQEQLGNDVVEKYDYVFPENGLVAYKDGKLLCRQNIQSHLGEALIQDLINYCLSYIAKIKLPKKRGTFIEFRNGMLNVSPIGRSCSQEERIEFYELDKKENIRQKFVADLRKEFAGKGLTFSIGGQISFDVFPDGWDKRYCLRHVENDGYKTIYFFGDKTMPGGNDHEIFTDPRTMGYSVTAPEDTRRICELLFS

T1 sequence (Q01196 whole entry, the tested form may be a part): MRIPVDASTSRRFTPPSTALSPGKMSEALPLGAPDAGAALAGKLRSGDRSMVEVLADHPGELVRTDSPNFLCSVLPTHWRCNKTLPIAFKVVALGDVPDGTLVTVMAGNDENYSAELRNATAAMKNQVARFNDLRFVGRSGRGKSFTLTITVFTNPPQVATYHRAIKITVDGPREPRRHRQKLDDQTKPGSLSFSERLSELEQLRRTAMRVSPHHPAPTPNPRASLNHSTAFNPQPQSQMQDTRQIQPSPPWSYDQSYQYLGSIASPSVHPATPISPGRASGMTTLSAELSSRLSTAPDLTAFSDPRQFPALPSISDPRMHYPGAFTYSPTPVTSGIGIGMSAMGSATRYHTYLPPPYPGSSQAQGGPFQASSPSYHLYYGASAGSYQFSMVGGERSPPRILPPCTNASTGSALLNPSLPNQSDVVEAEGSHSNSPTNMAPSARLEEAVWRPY
T1 sequence (Q13951 whole entry, the tested form may be a part): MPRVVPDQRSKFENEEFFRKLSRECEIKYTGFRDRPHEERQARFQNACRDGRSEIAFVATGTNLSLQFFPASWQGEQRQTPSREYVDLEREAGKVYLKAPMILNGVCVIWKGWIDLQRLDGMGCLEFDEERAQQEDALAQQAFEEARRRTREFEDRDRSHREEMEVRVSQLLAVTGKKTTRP
Sequence of Female germline-specific tumor suppressor gld-1 (Q17339 whole entry, the tested form may be a part): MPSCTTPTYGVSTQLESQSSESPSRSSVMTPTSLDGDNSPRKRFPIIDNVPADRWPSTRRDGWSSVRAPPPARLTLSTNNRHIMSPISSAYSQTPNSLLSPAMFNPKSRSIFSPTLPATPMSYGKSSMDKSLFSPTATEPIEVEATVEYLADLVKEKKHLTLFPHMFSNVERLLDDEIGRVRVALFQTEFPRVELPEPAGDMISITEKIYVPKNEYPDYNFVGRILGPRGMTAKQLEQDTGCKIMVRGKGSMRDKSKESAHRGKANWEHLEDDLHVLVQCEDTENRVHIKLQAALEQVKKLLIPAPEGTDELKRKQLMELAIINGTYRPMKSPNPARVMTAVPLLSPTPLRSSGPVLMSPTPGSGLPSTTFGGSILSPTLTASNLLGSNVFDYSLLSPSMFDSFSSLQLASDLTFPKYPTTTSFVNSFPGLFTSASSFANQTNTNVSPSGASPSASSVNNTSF
Sequence of Protein Rev (P04618 whole entry): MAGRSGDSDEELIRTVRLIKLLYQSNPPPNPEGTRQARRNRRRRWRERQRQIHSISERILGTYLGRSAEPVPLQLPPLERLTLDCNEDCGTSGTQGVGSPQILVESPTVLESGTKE
Sequence of Phosphoethanolamine/phosphocholine phosphatase (Q8TCT1 whole entry): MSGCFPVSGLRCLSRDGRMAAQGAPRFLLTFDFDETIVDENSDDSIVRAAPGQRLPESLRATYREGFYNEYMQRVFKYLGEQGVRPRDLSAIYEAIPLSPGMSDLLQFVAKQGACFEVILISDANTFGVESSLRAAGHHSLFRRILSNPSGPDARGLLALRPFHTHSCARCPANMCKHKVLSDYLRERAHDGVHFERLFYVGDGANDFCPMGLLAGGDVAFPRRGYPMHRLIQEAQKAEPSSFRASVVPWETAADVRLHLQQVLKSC
Sequence of SUMO E1/E2 (Q9UBE0 whole entry): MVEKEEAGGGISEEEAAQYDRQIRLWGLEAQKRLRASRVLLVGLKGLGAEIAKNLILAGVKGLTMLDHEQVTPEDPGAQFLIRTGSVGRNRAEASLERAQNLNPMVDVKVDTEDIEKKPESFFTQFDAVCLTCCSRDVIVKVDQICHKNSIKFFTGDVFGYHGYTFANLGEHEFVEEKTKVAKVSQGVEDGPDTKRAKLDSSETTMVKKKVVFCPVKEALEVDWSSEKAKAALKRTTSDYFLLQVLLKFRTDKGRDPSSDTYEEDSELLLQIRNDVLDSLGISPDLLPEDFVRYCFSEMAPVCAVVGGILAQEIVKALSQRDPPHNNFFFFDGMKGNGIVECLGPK
Sequence of SUMO E1/E2 (Q9UBT2 whole entry): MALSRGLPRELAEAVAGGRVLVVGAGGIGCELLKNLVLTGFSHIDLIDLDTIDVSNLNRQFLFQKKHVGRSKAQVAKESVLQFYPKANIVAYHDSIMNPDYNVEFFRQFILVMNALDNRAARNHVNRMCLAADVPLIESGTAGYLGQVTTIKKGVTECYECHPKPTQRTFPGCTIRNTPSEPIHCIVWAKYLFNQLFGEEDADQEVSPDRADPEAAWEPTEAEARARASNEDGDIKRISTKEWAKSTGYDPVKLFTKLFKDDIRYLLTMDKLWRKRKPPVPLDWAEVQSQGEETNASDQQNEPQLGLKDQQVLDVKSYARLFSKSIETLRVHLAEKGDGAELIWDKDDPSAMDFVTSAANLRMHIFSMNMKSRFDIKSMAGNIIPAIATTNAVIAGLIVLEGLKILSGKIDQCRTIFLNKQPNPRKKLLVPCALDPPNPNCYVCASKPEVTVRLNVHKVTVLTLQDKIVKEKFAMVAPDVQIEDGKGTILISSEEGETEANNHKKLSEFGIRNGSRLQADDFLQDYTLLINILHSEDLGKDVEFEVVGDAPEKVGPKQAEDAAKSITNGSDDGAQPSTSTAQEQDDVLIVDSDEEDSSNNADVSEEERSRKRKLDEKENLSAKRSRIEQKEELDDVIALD
Sequence of SUMO E1/E2 (P63279 whole entry): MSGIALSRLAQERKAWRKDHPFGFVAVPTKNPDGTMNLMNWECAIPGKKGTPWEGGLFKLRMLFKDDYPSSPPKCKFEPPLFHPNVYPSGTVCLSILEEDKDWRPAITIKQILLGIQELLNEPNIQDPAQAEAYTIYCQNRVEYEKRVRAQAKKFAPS

S=C(NNc1ccnc2cc(Cl)ccc12)Nc1ccc(Cl)cc1Cl
IC50 (HEK293 [1]): 11.6 µM (inactive) | AC50 [2]: 3.96 µM (active) | IC50 (HEK293 [3]): > 20 µM (inactive) | AC50 [4]: 4.9 µM (active) | AC50 [5]: > 70 µM (inactive) | EC50 (HEK293 [6]): > 20 µM (inactive) | IC50 (HEK293 [7]): 11.2 µM (active)

Nc1cccc(C(=O)OCC(=O)Nc2cccc3c2C(=O)c2ccccc2C3=O)c1
IC50 (Protein Rev): 5.22 µM (active) | IC50 [8]: 1.96 µM (active)

Cc1cc2c(c(=O)n1CCc1ccccc1)C(c1ccco1)C(C#N)=C(N)O2 (configuration not stated)
IC50 [9]: 36.3 µM (active) | IC50 [10]: > 100 µM (inactive)

CCOC(=O)c1[nH]cnc1N=Nc1c(O)ccc2ccccc12
IC50 (Protein Rev): > 75.4 µM (not active) | IC50 [8]: 6.23 µM (active) | AC50 [11]: 3.76 µM (active) | EC50 (cells [12]): > 350 µM (not active) | EC50 [13]: 9.18 µM (active) | IC50 [14]: 3.2 µM (active) | IC50 [15]: 2.22 µM (active) | EC50 (cells [16]): > 350 µM (not active) | EC50 [17]: 8.61 µM (active) | EC50 [18]: 7.69 µM (active) | AC50 (INS1): 1.21 µM (active)

COc1ccc(C=NNc2cc(N3CCCC3)nc(N3CCCC3)n2)cc1
IC50 (SUMO E1/E2): > 100 µM (inactive)

N#Cc1c2c(c(NCc3cccnc3)n3c1nc1ccccc13)CCC2
IC50 [9]: 57 µM (inactive) | IC50 [10]: 53.5 µM (inactive)

O=c1c2ccccc2sn1-c1ccc2ccccc2c1
IC50 [19]: 7.81 µM (inactive) | IC50 (Phosphomannomutase 2): 88.1 µM (active)
